Reference: ChEMBL document CHEMBL1135135, “Synthesis and cytotoxicity of 2alpha-amido docetaxel analogues” (Bioorg Med Chem Lett, 2002)

What was measured:
Assay type in all cases: functional, cell-based
Details in all cases: Homo sapiens
KB [1] = assay: Inhibitory activity against KB nasopharynx cancer cell line
A549 [2] = assay: Inhibitory activity against Taxol-resistant A549 lung cancer cell line
A549 [3] = assay: Inhibitory activity against A549 lung cancer cell line
KB [4] = assay: Inhibitory activity against Vincristine-resistant KB nasopharynx cancer cell line
MCF7 [5] = assay: Inhibitory activity against Adriamycin-resistant MCF-7 breast cancer cell line
MCF7 [6] = assay: Inhibitory activity against MCF-7 breast cancer cell line

Compound | IC50 (KB [1]) | IC50 (A549 [2]) | IC50 (A549 [3]) | IC50 (KB [4]) | IC50 (MCF7 [5]) | IC50 (MCF7 [6])
CC(=O)O[C@H]1C(=O)[C@@]2(C)C([C@H](NC(=O)c3cccc(Cl)c3)[C@]3(O)C[C@H](OC(=O)[C@@H](O)[C@@H](NC(=O)OC(C)(C)C)c4ccccc4)C(C)=C1C3(C)C)[C@@](CO)(OC(C)=O)[C@@H](O)C[C@@H]2O (some centres undefined) | > 100 nM | > 1000 nM | > 100 nM | > 1000 nM | – | –
CC(=O)O[C@H]1C(=O)[C@@]2(C)C([C@H](NC(=O)OCc3ccccc3)[C@]3(O)C[C@H](OC(=O)[C@@H](O)[C@@H](NC(=O)OC(C)(C)C)c4ccccc4)C(C)=C1C3(C)C)[C@]1(OC(C)=O)CO[C@@H]1C[C@@H]2O (some centres undefined) | > 100 nM | > 1000 nM | > 100 nM | > 1000 nM | – | –
CC(=O)O[C@H]1C(=O)[C@@]2(C)C([C@H](NC(=O)c3ccc(Cl)cc3)[C@]3(O)C[C@H](OC(=O)[C@@H](O)[C@@H](NC(=O)OC(C)(C)C)c4ccccc4)C(C)=C1C3(C)C)[C@@](CO)(OC(C)=O)[C@@H](O)C[C@@H]2O (some centres undefined) | > 100 nM | > 1000 nM | > 100 nM | > 1000 nM | – | –
CC(=O)O[C@H]1C(=O)[C@@]2(C)C([C@H](NC(=O)c3ccc(Cl)cc3)[C@]3(O)C[C@H](OC(=O)[C@@H](O)[C@@H](NC(=O)OC(C)(C)C)c4ccccc4)C(C)=C1C3(C)C)[C@]1(OC(C)=O)CO[C@@H]1C[C@@H]2O (some centres undefined) | > 100 nM | > 1000 nM | > 100 nM | > 1000 nM | – | –
CC(=O)O[C@H]1C(=O)[C@@]2(C)C([C@H](NC(=O)c3ccccc3)[C@]3(O)C[C@H](OC(=O)[C@@H](O)[C@@H](NC(=O)OC(C)(C)C)c4ccccc4)C(C)=C1C3(C)C)[C@@](CO)(OC(C)=O)[C@@H](O)C[C@@H]2O (some centres undefined) | > 100 nM | > 1000 nM | > 100 nM | > 1000 nM | – | –
CC(=O)O[C@H]1C(=O)[C@@]2(C)C([C@H](NC(=O)c3ccc([N+](=O)[O-])cc3)[C@]3(O)C[C@H](OC(=O)[C@@H](O)[C@@H](NC(=O)OC(C)(C)C)c4ccccc4)C(C)=C1C3(C)C)[C@]1(OC(C)=O)CO[C@@H]1C[C@@H]2O (some centres undefined) | > 100 nM | > 1000 nM | > 100 nM | > 1000 nM | – | –

The remaining lines, values ahead:

IC50 (KB [1]) | IC50 (A549 [2]) | IC50 (A549 [3]) | IC50 (KB [4]) | IC50 (MCF7 [5]) | IC50 (MCF7 [6]) | Compound
> 100 nM | > 1000 nM | > 100 nM | > 1000 nM | – | – | COc1ccc(C(=O)N[C@H]2C3[C@](C)(C(=O)[C@H](OC(C)=O)C4=C(C)[C@@H](OC(=O)[C@@H](O)[C@@H](NC(=O)OC(C)(C)C)c5ccccc5)C[C@]2(O)C4(C)C)[C@@H](O)C[C@H]2OC[C@@]32OC(C)=O)cc1 (some centres undefined)
150 nM | – | 250 nM | – | – | – | CC(=O)O[C@H]1C(=O)[C@@]2(C)C([C@H](NC(=O)c3ccccc3)[C@]3(O)C[C@H](OC(=O)[C@@H](O)[C@@H](NC(=O)OC(C)(C)C)c4ccccc4)C(C)=C1C3(C)C)[C@]1(OC(C)=O)CO[C@@H]1C[C@@H]2O (some centres undefined)
78 nM | 1100 nM | 95 nM | > 1000 nM | > 4500 nM | 110 nM | CC(=O)O[C@H]1C(=O)[C@@]2(C)C([C@H](NC(=O)c3cccc(Cl)c3)[C@]3(O)C[C@H](OC(=O)[C@@H](O)[C@@H](NC(=O)OC(C)(C)C)c4ccccc4)C(C)=C1C3(C)C)[C@]1(OC(C)=O)CO[C@@H]1C[C@@H]2O (some centres undefined)
74 nM | 1000 nM | 83 nM | 1100 nM | > 4600 nM | 73 nM | COc1cccc(C(=O)N[C@H]2C3[C@](C)(C(=O)[C@H](OC(C)=O)C4=C(C)[C@@H](OC(=O)[C@@H](O)[C@@H](NC(=O)OC(C)(C)C)c5ccccc5)C[C@]2(O)C4(C)C)[C@@H](O)C[C@H]2OC[C@@]32OC(C)=O)c1 (some centres undefined)
4.4 nM | 98 nM | 4.1 nM | 200 nM | 4200 nM | 7.9 nM | CC(=O)O[C@@]12CO[C@@H]1C[C@H](O)[C@@]1(C)C(=O)[C@H](O)C3=C(C)[C@@H](OC(=O)[C@H](O)[C@@H](NC(=O)OC(C)(C)C)c4ccccc4)C[C@@](O)([C@@H](OC(=O)c4ccccc4)[C@H]21)C3(C)C [DOCETAXEL]
9.1 nM | 960 nM | 12 nM | 1700 nM | > 6000 nM | 5.5 nM | CC(=O)O[C@H]1C(=O)[C@@]2(C)[C@H]([C@H](OC(=O)c3ccccc3)[C@]3(O)C[C@H](OC(=O)[C@H](O)[C@@H](NC(=O)c4ccccc4)c4ccccc4)C(C)=C1C3(C)C)[C@]1(OC(C)=O)CO[C@@H]1C[C@@H]2O [PACLITAXEL]
